ChEMBL document CHEMBL1268885, “Subtype-selective Na(v)1.8 sodium channel blockers: identification of potent, orally active nicotinamide derivatives” (Bioorg Med Chem Lett, 2010)
In brackets after ≈: the same amount, converted by molar mass.

Assays:
[1] = Intrinsic clearance in rat microsomes after 1 hr; format: ADME, Microsome
[2] = species: Homo sapiens; experiment: Selectivity ratio of IC50 for human NAv1.2 to IC50 for human Nav1.8
[3] = species: Rattus norvegicus; experiment: Analgesic activity in rat Chung model of neuropathic pain assessed as decrease in von Frey filament-induced pain; format: functional
[4] = target: Voltage-gated potassium channel, KQT; KCNQ2(Kv7.2)/KCNQ3(Kv7.3) (Homo sapiens, UniProt O43525+O43526); experiment: Inhibition of KCNQ2/Q3; format: protein-complex assay
[5] = species: Homo sapiens; experiment: Selectivity ratio of IC50 for human ERG to IC50 for human Nav1.8
[6] = Ratio of drug level in brain to plasma in rat; format: ADME, cell-free; conditions: read-out: BPR
[7] = Cmax in rat; format: ADME, organism-based; conditions: in vivo
[8] = Aqueous solubility of the compound; format: physicochemical; conditions: buffer
[9] = target: Sodium channel protein type 5 subunit alpha (Homo sapiens, UniProt Q14524); experiment: Inhibition of human NaV1.5 by electrophysiology
[10] = target: Transient receptor potential cation channel subfamily V member 1 (Homo sapiens, UniProt Q8NER1); experiment: Inhibition of TRPV1
[11] = Oral bioavailability in rat at 3 mg/kg; format: ADME, organism-based; conditions: in vivo
[12] = Volume of distribution at steady state in rat; format: ADME, organism-based; conditions: in vivo, read-out: Vdss
[13] = target: Voltage-dependent N-type calcium channel subunit alpha-1B (Homo sapiens, UniProt Q00975); experiment: Inhibition of CaV2.2
[14] = target: Sodium channel protein type 10 subunit alpha (Homo sapiens, UniProt Q9Y5Y9); experiment: Inhibition of human NaV1.8 by electrophysiology
[15] = (§1) Plasma protein binding in rat; format: ADME, cell-free; conditions: read-out: PPB (converted)
[16] = species: Rattus norvegicus; experiment: Analgesic activity in rat Chung model of neuropathic pain; format: functional
[17] = target: Sodium channel protein type 10 subunit alpha (Rattus norvegicus, UniProt Q62968); experiment: Inhibition of tetrodotoxin-resistant NaV1.8 in rat DRG neuron by electrophysiology
[18] = target: Voltage-gated inwardly rectifying potassium channel KCNH2 (Homo sapiens, UniProt Q12809); experiment: Inhibition of human ERG by Isotopic flux assay
[19] = target: T1, P2X2/P2X3 heterotrimeric receptor (Homo sapiens, UniProt P56373+Q9UBL9); experiment: Inhibition of P2X2/3 receptor; format: protein-complex assay
T1 sequence (Q9UBL9 whole entry): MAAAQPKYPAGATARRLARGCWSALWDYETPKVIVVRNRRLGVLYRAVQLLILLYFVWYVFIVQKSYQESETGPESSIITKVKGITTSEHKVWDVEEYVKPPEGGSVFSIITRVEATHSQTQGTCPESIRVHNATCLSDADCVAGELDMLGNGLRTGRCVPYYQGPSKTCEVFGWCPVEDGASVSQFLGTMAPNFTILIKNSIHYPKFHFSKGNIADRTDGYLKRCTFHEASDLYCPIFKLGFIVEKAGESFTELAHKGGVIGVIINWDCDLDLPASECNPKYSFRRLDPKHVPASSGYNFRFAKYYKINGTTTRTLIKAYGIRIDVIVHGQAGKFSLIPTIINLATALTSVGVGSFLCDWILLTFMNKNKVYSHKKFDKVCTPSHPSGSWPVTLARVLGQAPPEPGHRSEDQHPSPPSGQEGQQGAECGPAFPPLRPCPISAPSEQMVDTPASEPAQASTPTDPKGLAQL
T1 sequence (P56373 whole entry): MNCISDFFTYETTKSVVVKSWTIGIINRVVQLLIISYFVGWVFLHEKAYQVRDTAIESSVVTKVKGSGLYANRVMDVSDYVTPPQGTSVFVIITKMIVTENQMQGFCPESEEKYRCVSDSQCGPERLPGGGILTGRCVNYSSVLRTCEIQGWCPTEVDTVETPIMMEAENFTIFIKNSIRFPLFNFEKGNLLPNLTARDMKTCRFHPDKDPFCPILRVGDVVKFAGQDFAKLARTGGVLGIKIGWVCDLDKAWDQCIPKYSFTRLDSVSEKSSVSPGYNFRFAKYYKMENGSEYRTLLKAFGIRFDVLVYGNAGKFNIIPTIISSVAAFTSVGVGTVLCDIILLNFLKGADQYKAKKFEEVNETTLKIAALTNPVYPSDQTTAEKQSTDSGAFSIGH

[20] = Inhibition of benzodiazepine receptor at 10 uM
[21] = Plasma clearance in rat; format: ADME, organism-based
[22] = target: Sodium channel protein type 10 subunit alpha (Mus musculus, UniProt Q6QIY3); experiment: Inhibition of mouse NaV1.8 by isotopic flux assay
[23] = target: Sodium channel protein type 2 subunit alpha (Homo sapiens, UniProt Q99250); experiment: Inhibition of human NaV1.2 by electrophysiology
[24] = Intrinsic clearance in human microsomes; format: ADME, Microsome
[25] = tested on: Plasma; experiment: as §1; format: ADME, cell-free
[26] = Inhibition of chloride channel at 10 uM

Chain of Sodium channel protein type 10 subunit alpha (Rattus norvegicus, UniProt Q62968) (Q62968 whole entry): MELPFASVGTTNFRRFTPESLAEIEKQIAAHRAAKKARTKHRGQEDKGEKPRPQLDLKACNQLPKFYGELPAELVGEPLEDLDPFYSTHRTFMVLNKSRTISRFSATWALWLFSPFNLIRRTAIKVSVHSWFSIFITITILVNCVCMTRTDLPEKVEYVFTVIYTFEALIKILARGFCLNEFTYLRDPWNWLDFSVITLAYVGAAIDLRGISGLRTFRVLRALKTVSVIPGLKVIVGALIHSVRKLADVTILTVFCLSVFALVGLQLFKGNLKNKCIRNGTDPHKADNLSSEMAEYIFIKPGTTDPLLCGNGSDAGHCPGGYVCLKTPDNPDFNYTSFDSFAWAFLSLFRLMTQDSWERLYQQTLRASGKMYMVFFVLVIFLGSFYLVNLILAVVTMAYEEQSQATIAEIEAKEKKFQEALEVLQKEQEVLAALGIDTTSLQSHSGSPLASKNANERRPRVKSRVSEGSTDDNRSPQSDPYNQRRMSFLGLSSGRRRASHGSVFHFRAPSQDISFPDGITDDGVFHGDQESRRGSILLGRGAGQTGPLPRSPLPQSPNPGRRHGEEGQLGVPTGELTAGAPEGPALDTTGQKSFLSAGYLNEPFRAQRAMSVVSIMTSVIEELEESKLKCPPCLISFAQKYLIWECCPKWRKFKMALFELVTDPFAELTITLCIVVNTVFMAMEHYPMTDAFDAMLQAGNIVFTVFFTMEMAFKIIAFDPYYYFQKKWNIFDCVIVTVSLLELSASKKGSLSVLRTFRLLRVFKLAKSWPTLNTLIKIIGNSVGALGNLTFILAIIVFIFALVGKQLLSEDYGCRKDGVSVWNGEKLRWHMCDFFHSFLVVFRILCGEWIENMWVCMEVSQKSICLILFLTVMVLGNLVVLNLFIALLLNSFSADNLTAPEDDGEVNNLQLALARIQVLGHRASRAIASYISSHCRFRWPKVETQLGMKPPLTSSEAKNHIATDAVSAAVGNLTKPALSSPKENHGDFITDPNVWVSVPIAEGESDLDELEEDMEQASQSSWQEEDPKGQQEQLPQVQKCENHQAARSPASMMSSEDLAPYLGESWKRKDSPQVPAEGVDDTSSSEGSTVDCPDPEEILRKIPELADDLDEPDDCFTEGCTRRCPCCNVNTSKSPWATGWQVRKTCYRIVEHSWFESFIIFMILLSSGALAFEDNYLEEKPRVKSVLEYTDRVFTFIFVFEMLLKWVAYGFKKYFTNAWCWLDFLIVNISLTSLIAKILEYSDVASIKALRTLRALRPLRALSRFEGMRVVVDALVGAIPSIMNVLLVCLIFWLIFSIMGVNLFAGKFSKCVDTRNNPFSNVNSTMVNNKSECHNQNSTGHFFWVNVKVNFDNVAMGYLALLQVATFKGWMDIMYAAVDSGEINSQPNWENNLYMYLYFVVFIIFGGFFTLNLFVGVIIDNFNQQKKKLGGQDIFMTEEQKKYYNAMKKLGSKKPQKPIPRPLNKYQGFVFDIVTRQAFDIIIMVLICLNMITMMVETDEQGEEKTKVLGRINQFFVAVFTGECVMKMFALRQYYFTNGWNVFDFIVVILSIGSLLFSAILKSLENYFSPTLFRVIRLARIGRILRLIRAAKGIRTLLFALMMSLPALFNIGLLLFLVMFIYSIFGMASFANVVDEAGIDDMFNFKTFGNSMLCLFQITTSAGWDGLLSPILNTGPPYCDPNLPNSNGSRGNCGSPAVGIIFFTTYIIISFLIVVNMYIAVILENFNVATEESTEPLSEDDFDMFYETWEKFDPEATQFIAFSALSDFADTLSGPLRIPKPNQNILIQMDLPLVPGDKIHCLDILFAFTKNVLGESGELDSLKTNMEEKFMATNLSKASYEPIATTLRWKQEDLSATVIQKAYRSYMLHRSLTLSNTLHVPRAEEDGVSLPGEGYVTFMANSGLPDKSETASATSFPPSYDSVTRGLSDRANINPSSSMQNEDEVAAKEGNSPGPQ
Chain of Sodium channel protein type 10 subunit alpha (Mus musculus, UniProt Q6QIY3) (Q6QIY3 whole entry): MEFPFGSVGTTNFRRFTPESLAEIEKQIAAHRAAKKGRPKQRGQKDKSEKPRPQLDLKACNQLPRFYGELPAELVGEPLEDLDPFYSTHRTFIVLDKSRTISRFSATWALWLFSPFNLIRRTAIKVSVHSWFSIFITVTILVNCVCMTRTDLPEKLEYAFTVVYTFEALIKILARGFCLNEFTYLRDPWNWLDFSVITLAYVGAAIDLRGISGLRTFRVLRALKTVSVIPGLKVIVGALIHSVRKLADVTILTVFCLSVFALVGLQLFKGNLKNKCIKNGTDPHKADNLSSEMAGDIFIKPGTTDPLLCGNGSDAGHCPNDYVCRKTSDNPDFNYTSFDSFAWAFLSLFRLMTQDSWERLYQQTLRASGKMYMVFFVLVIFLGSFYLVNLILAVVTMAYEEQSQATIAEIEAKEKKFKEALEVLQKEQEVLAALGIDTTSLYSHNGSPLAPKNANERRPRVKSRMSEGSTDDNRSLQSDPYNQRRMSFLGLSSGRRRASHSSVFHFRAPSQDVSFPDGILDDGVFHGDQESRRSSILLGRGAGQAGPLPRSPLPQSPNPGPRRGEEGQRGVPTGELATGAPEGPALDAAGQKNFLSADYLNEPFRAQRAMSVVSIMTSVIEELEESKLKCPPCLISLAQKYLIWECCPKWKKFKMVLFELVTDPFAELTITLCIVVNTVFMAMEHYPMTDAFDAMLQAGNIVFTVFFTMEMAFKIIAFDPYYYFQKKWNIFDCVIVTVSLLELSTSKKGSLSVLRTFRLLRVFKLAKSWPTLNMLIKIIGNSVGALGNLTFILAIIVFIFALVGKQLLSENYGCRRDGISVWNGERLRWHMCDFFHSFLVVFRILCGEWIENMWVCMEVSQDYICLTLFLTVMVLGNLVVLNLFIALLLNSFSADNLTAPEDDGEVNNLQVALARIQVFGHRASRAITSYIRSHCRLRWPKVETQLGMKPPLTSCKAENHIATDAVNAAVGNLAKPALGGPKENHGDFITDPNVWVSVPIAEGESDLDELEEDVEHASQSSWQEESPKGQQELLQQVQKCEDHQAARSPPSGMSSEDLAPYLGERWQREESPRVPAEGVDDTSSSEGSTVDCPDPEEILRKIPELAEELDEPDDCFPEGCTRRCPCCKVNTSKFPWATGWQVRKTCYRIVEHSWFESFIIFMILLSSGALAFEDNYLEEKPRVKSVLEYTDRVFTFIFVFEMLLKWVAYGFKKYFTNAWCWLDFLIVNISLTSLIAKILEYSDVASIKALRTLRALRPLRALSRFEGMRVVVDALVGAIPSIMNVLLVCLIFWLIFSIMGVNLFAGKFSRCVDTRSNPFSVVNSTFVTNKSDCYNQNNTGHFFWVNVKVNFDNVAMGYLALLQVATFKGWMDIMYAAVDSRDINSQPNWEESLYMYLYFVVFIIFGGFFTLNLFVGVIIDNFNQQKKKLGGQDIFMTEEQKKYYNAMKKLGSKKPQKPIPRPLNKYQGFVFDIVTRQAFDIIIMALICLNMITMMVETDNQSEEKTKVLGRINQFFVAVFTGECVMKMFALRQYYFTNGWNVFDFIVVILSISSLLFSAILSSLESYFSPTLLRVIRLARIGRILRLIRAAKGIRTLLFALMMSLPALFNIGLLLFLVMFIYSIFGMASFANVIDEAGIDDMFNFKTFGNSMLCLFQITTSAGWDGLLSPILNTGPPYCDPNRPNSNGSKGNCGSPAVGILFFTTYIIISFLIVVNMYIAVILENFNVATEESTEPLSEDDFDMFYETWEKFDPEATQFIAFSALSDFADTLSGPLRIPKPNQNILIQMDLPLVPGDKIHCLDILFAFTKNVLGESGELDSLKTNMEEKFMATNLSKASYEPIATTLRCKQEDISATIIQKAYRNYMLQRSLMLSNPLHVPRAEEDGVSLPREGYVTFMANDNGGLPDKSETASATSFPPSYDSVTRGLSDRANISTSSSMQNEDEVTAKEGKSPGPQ
Chain of Voltage-gated inwardly rectifying potassium channel KCNH2 (Q12809 whole entry): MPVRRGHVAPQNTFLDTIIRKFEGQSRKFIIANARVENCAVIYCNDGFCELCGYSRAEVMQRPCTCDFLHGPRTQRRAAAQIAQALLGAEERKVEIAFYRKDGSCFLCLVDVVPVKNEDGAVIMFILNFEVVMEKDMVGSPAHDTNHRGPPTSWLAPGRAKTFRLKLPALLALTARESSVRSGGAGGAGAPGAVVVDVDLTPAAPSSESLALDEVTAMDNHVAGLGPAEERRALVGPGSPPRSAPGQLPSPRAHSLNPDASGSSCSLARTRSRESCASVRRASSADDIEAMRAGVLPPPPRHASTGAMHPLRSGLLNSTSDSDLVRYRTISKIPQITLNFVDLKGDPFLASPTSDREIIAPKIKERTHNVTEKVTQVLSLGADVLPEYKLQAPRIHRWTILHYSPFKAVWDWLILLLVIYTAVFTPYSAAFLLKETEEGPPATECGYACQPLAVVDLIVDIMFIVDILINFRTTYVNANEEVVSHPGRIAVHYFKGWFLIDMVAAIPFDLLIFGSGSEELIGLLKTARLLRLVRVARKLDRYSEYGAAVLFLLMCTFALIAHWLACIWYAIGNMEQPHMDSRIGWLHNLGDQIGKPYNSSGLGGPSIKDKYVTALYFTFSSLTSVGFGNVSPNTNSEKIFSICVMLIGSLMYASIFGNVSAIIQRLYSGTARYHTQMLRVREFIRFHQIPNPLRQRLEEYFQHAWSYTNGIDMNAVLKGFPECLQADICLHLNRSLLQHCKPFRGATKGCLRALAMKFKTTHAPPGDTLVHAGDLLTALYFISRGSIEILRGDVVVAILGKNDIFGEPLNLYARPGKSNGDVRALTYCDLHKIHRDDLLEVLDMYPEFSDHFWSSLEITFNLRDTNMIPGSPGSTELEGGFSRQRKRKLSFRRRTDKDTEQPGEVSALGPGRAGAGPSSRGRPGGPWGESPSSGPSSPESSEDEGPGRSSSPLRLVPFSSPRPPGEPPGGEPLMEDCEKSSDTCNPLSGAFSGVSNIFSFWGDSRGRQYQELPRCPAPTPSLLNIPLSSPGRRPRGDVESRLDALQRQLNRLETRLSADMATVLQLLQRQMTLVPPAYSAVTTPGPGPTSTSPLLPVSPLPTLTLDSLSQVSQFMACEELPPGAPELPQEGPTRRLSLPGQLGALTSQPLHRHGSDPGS

SMILES | Ratio IC50 [2] | Ratio IC50 [5] | IC50 [14] [µM] | IC50 [17] [µM] | IC50 [22] [µM] | IC50 [23] [µM] | also measured
Cc1cc(C)cc(NC(=O)c2cncc(-c3ccc(C#N)cc3)c2)c1 | > 30 | > 30 | 0.023 | 0.091 | 0.19 |  | microsomal CLint [1]: 270 µL/min/mg; Emax [3]: 60%; IC50 [4]: > 10 µM; Kp [6]: 1.3; Cmax [7]: 740 ng/mL; solubility [8]: 1.4 µg/mL (≈ 4.28 µM); IC50 [9]: > 30 µM; IC50 [10]: > 10 µM; bioavailability [11]: 17%; Vd [12]: 0.5 L/kg; IC50 [13]: > 10 µM; fraction unbound [15]: 0.005; ED50 [16]: 72 mg/kg; IC50 [18]: 16 µM; IC50 [19]: > 10 µM; inhibition [20]: > 70%; clearance [21]: 16.7 mL/min/kg
O=C(NCc1ccccc1N1CCCCC1)c1cncc(-c2ccc(Cl)cc2)c1 |  |  | 0.008 | 0.045 | < 0.03 | 0.05 | 
Cc1cc(C)cc(NC(=O)c2nsc(-c3ccc(OC(F)(F)F)cc3)n2)c1 | > 30 | > 30 | 0.008 | 0.52 | 0.28 |  | microsomal CLint [1]: > 300 µL/min/mg; microsomal CLint [24]: > 300 µL/min/mg
O=C(NCc1ccccc1Cl)c1cncc(-c2ccc(Cl)cc2)c1 |  |  | 0.004 | 0.066 | 0.081 | 1.2 | 
Cc1ncccc1CNC(=O)c1cncc(-c2ccc(Cl)cc2)c1 |  |  |  |  | 2.6 |  | 
O=C(NCc1cccnc1)c1cncc(-c2ccc(Cl)cc2)c1 |  |  |  |  | 7.9 |  | 
Cc1cc(C)cc(NC(=O)c2ccnc(-c3ccc(OC(F)(F)F)cc3)c2)c1 | > 30 | > 30 | 0.78 |  | 11 |  | 
COc1cc(NC(=O)c2ccc(-c3ccc(Cl)cc3)o2)cc(OC)c1 | 100 |  |  | 0.125 |  |  | solubility [8]: < 0.1 µg/mL; bioavailability [11]: 10%
O=C(NCc1ccccc1N1CCOCC1)c1cncc(-c2ccc(Cl)cc2)c1 |  |  | 0.01 | 0.13 | 0.032 | 0.12 | 
Cc1cc(C)cc(NC(=O)c2ccc(-c3ccc(OC(F)(F)F)cc3)o2)c1 | > 30 | > 30 | 0.002 | 0.13 | 0.29 |  | 
CCOc1ncccc1CNC(=O)c1cncc(-c2ccc(Cl)cc2)c1 |  |  | 0.007 | 0.032 | 0.088 | 0.67 | 
O=C(NCc1cccnc1OCC(F)(F)F)c1cncc(-c2ccc(Cl)cc2)c1 |  |  | 0.003 | 0.028 | 0.087 | 2.8 | microsomal CLint [1]: 68 µL/min/mg; Emax [3]: 66%; IC50 [4]: > 10 µM; Kp [6]: 1; Cmax [7]: 350 ng/mL; solubility [8]: 3.1 µg/mL (≈ 7.35 µM); IC50 [9]: 4.7 µM; IC50 [10]: > 10 µM; bioavailability [11]: 95%; Vd [12]: 2 L/kg; IC50 [13]: > 10 µM; PPB [25]: 98.7%; ED50 [16]: 65 mg/kg; IC50 [18]: 19 µM; IC50 [19]: > 10 µM; inhibition [26]: > 70%; clearance [21]: 10 mL/min/kg
Cc1cc(C)cc(NC(=O)c2cncc(-c3ccc(OC(F)(F)F)cc3)c2)c1 | > 30 | > 30 | 0.026 | 0.097 | 0.53 |  | 
O=C(NCc1cccnc1Cl)c1cncc(-c2ccc(Cl)cc2)c1 |  |  | 0.14 | 0.56 | 0.68 | 18 | 
O=C(NCc1cccnc1N1CCOCC1)c1cncc(-c2ccc(Cl)cc2)c1 |  |  | 0.087 | 0.098 | 0.34 | 1.6 | solubility [8]: > 50 µg/mL
O=C(NCc1ccccc1)c1cncc(-c2ccc(Cl)cc2)c1 |  |  | 0.022 | 0.085 | 0.62 | 1.9 | 
Cc1cc(C)cc(NC(=O)c2csc(-c3ccc(OC(F)(F)F)cc3)n2)c1 | > 30 | > 30 | 0.051 | 0.38 | 0.4 |  | microsomal CLint [1]: > 300 µL/min/mg; microsomal CLint [24]: > 300 µL/min/mg
Cc1ccccc1CNC(=O)c1cncc(-c2ccc(Cl)cc2)c1 |  |  | 0.002 | 0.009 | < 0.03 | 0.11 | 
Cc1cc(C)cc(NC(=O)c2coc(-c3ccc(OC(F)(F)F)cc3)n2)c1 | > 30 | > 30 | 0.18 | 2 | 1.4 |  | 
O=C(NCc1cccnc1N1CCCCC1)c1cncc(-c2ccc(Cl)cc2)c1 |  |  | 0.014 | 0.008 | 0.026 | 0.07 | 
Cc1cc(C)cc(NC(=O)c2cccc(-c3ccc(OC(F)(F)F)cc3)n2)c1 | > 30 | > 30 | 0.064 | 0.51 | 1.5 |  | 
Cc1cc(C)cc(NC(=O)c2cnc(-c3ccc(OC(F)(F)F)cc3)o2)c1 | > 30 | > 30 | 0.28 | 0.95 | 0.34 |  | 
Cc1cc(C)cc(NC(=O)c2cncc(-c3ccc(Cl)cc3)c2)c1 | > 30 | > 30 | 0.009 | 0.087 | 0.61 |  | 
Cc1cc(C)cc(NC(=O)c2nc(-c3ccc(OC(F)(F)F)cc3)no2)c1 | > 30 | > 30 | 0.47 | 0.82 | 0.87 |  | 
Cc1cc(C)cc(NC(=O)c2cncc(-c3ccc(OC(F)(F)F)cc3)n2)c1 | > 30 | > 30 | 0.021 | 0.034 | 0.057 |  | 
Cc1cc(C)cc(NC(=O)c2cncc(-c3ccc(F)cc3)c2)c1 | > 30 | > 30 | 0.1 | 0.21 | 1.9 |  | 
